“And” between values parts separate entries of the source, which are not always exact repeats. Equal entries are not always repeated.
Assays:
[1] = test system: mouse model of pericarditis; experiment: Mouse model of pericarditis (Zymosan A): pericardial space by transthoracic echocardiography; format: in vivo
Description: (§1) Experiments were conducted using a mouse model of pericarditis described in Mauro et al. (10), which mouse model is incorporated herein by reference for its disclosure of the mouse model.
(§2) Adult Institute of Cancer Research (IRC) mice (10 weeks of age) supplied by Harlan Laboratories (Harlan Sprague Dawley Inc.) were used and divided into the following treatment groups, with each group consisting of 4-5 mice: • 1. Group 1 (NaCl+Veh)—mice received normal saline (0.9% w/v NaCl) in the surgical procedure described below and were subsequently treated for seven days with a vehicle consisting of ethanol:Cremophor EL:water (1:1:18). • 2. Group 2 (NaCl+)—mice received normal saline (0.9% w/v NaCl) in the surgical procedure described below and were subsequently treated for seven days with cannabidiol at a dose of 10 mg/kg. The cannabidiol was dissolved in the same vehicle as the vehicle used for Group 1. • 3. Group 3 (Zym+Veh)—mice received Zymosan A in the surgical procedure described below and were subsequently treated for seven days with the same vehicle as the vehicle used for Group 1. • 4. […] The cannabidiol was dissolved in the same vehicle as the vehicle used for Group 1. • 5. […] The cannabidiol was dissolved in the same vehicle as the vehicle used for Group 1.
The mice of all four treatment groups were anesthetized, intubated orotracheally, and placed in the right lateral decubitus position. A left thoracotomy was then performed. Under direct visualization and using a 30 Gauge needle, 1 mg of Zymosan A (referred to herein also as “zymosan”) dissolved in 50 μl of sterile normal saline (0.9% w/v NaCl) was delivered into the pericardial space of the mice of Groups 3 and 4 by carefully lifting the pericardial sac with forceps until a complete distribution of the solution into the pericardium was achieved. […] All mice received analgesia for the peri-operative period.
For all groups, treatments with either cannabidiol dissolved in vehicle, or vehicle alone, were administered intraperitoneally (IP) every day for seven days with the first treatment administered approximately 30 minutes after the surgery.
On day seven, echocardiography was performed on the mice of all groups under light anesthesia using a Prospect™ T1 ultrasound imaging system (Scintica, London, Canada). In this procedure, the left ventricle in the parasternal short-axis view at the mid-ventricular level was visualized in the bi-dimensional mode (B-mode). The image was optimized for the anterior wall, and the image was zoomed in to visualize the anterior pericardial structures. After optimization of the image, amono-dimensional mode (M-mode) was acquired for optimal spatial-temporal resolution. An investigator blinded to group allocation measured the maximal pericardial space between the 2 layers of the pericardium in both M- and B-mode. The pericardial space is a one-dimensional measure of pericardial effusion.

NLRP3 inflammasome = experiment: IL-1β ELISA in the in vitro model of NLRP3 inflammasome activation (LPS + ATP); format: cell-based, mouse; settings: for attenuation of the increase in IL-1β: CBD 10 μM, LPS + ATP
Description: An experiment was performed to determine the effect of 10 μM cannabidiol on NLRP3 inflammasome activation in an in vitro model as follows. J774A.1 mouse macrophages were cultured in 96-well plates (15,000 cells/well) and divided into the following groups to which various treatments described below were administered during a period of six hours: • 1. Group 1 (CNT)—cells received nothing during the 6-hour treatment period. • 2. Group 2 (LPS)—cells received LPS (1 μg/ml) for 6 hours. • 3. Group 3 (ATP)—cells received nothing for 5.5 hours and then ATP (5 mM) for the last 30 minutes. • 4. Group 4 (LPS+ATP)—cells received LPS (1 μg/mL) for 5.5 hours and ATP (5 mM) for the last 30 minutes. • 5. […] After 6 hours, 100 μL of a sample from each well of cells was collected and loaded as a single point in a specific ELISA assay that was used to measure the amount of IL-1β secreted by the macrophages in each sample. IL-1β is an indicator of and positively correlated with NLRP3 inflammasome activation. An experiment was performed to evaluate the effect of different doses of cannabidiol (10, 1, 0.1, and 0.01 μM) using the in vitro model of Example 1A. In this experiment, J774A.1 mouse macrophages were cultured in 96-well plates (15,000 cells/well) and divided into the following groups to which various treatments described below were administered during a period of six hours: • 1. Group 1 (Control)—cells received nothing during the 6-hour treatment period. • 2. Group 2 (LPS+ATP)—cells received LPS (1 μg/mL) for 5.5 hours and ATP (5 mM) for the last 30 minutes. • 3. […] After 6 hours, 100 μL of a sample from each well of cells was collected and loaded as a single point in a specific ELISA assay that was used to measure the amount of IL-1β in each sample.

pro-IL-1β mRNA = experiment: PCR of pro-IL-1β mRNA transcription in LPS-treated macrophages; format: cell-based, mouse; settings: CBD 10 μM + LPS 1 μg/mL for 6 hours; J774A.1
Description: (§3) Experiments were performed to evaluate cannabidiol's anti-inflammatory activity and mechanism of action. The secretion of IL-6 and the transcription of the NLRP3 inflammasome components, pro-IL-1β mRNA, and NLRP3 mRNA, are regulated by the NF-κβ pathway and activated by LPS. After 6 hours, 100 μL of a sample from each well of cells was collected and loaded as a single point in a specific ELISA assay that was used to measure the amount of IL-6 in each sample. […] A second experiment was performed to evaluate the effect of cannabidiol on the transcription of components of the NLRP3 inflammasome, namely, pro-IL-1β mRNA and NLRP3 mRNA. In this second experiment, J774A.1 mouse macrophages were cultured in individual plates (1,000,000 cells/well) and divided into the following groups to which various treatments described below were administered during a period of six hours. • 1. Group 1 (Control)—cells received nothing during the 6 hours treatment period. • 2. Group 2 (LPS)—cells received LPS (1 μg/ml) for 6 hours. • 3. […] At the end of the six-hour treatment period, samples from each group were collected and processed using Polymerase Chain Reaction (PCR) to measure the level of transcription of pro-IL-1B mRNA and NLRP3 mRNA in the samples.

[2] = test system: mouse model of pericarditis; experiment: Mouse model of pericarditis (Zymosan A): pericardial thickness by histochemistry; format: in vivo; settings: day seven, differences not statistically significant
Description: as §1, §2
The mice of all four treatment groups were anesthetized, intubated orotracheally, and placed in the right lateral decubitus position. A left thoracotomy was then performed. […]
Following echocardiography, and on day seven, the mice were sacrificed, and their hearts were explanted and processed for pathology. […] An investigator blinded to group allocation measured the pericardial thickness with the aid of computer morphometry using Image-Pro™ Plus 6.0 software (Media Cybernetics, Silver Spring, MD).

NLRP3 mRNA = experiment: PCR of NLRP3 mRNA transcription in LPS-treated macrophages; format: cell-based, mouse; settings: CBD 10 μM + LPS 1 μg/mL for 6 hours; J774A.1
Description: as §3

IL-6 = IL-6 ELISA in LPS-treated macrophages (in vitro model of inflammation); format: cell-based, mouse; settings: CBD 10 μM + LPS 1 μg/mL for 6 hours; J774A.1
Description: Experiments were performed to evaluate cannabidiol's anti-inflammatory activity and mechanism of action. The secretion of IL-6 and the transcription of the NLRP3 inflammasome components, pro-IL-1β mRNA, and NLRP3 mRNA, are regulated by the NF-κβ pathway and activated by LPS. In a first experiment, J774A.1 mouse macrophages were cultured in 96-well plates (15,000 cells/well) and divided into the following groups to which various treatments described below were administered during a period of six hours: • 1. Group 1 (Control)—cells received nothing during the 6 hours treatment period. • 2. Group 2 (LPS)—cells received LPS (1 μg/ml) for 6 hours. • 3. […] After 6 hours, 100 μL of a sample from each well of cells was collected and loaded as a single point in a specific ELISA assay that was used to measure the amount of IL-6 in each sample. […] A second experiment was performed to evaluate the effect of cannabidiol on the transcription of components of the NLRP3 inflammasome, namely, pro-IL-1β mRNA and NLRP3 mRNA. In this second experiment, J774A.1 mouse macrophages were cultured in individual plates (1,000,000 cells/well) and divided into the following groups to which various treatments described below were administered during a period of six hours. • 1. Group 1 (Control)—cells received nothing during the 6 hours treatment period. • 2. […]

C=C(C)[C@@H]1CCC(C)=C[C@H]1c1c(O)cc(CCCCC)cc1O [CBD, 2-[(1R,6R)-3-methyl-6-prop-1-en-2-ylcyclohex-2-en-1-yl]-5-pentylbenzene-1,3-diol]
effect on increase in measured pericardial space, Zym+CBD 1 mg/kg (FIG. 2) ([1]; Zymosan A mice, CBD 1 mg/kg IP daily for seven days): attenuated the increase in the measured pericardial space to the same degree as cannabidiol at a dose of 10 mg/kg
Measured pericardial space, Zym + CBD, Mean ([1]; Zymosan A mice, CBD 10 mg/kg IP daily for seven days, day seven, mean): 0.1177 mm
Measured pericardial space, Zym + CBD ([1]; Zymosan A mice, CBD 10 mg/kg IP daily for seven days, day seven, single mice): 0.103 mm and 0.152 mm and 0.112 mm and 0.104 mm
pericardial space versus Group 1 (Saline+Veh), Zym+CBD ([1]; Zymosan A mice, CBD 10 mg/kg IP, differences not statistically significant): did not develop a pericardial space greater than that of the mice of Group 1
attenuation of the increase in the measured pericardial space ([1]; calculated from Table 2 means, Zymosan A mice, CBD 10 mg/kg IP): at least 85%
Measured pericardial space, Saline + CBD ([1]; sham (saline) mice, CBD 10 mg/kg IP daily for seven days, day seven, single mice): 0.098 mm and 0.097 mm and 0.105 mm
pericardial space versus Group 1 (Saline+Veh), Saline+CBD ([1]; sham mice, CBD 10 mg/kg IP, differences not statistically significant): did not develop a pericardial space greater than that of the mice of Group 1
IL-1β concentration versus LPS+ATP group (FIG. 1A) (NLRP3 inflammasome; CBD 10 μM + LPS + ATP versus LPS + ATP, J774A.1): significantly lower concentrations of IL-1β
effect of different concentrations on IL-1β (FIG. 1B) (NLRP3 inflammasome; CBD 10, 1, 0.1 and 0.01 μM + LPS + ATP, J774A.1): effective to attenuate the increase in IL-1β in a dose dependent fashion
IL-1β with CBD alone versus Control group (NLRP3 inflammasome; CBD alone 10 μM, no LPS or ATP, J774A.1): no different than the Control group
IL-1β Concentration, CBD, Mean (NLRP3 inflammasome; Table 1A.1, J774A.1 macrophages, CBD 10 μM alone for 6 hours, mean): 6 pg/mL
IL-1β Concentration, CBD (NLRP3 inflammasome; Table 1A.1, J774A.1 macrophages, CBD 10 μM alone for 6 hours, single wells): 5.9 pg/mL and 6.1 pg/mL
IL-1β Concentration, CBD + LPS + ATP, Mean (NLRP3 inflammasome; Table 1A.1, J774A.1, CBD 10 μM + LPS 1 μg/mL 5.5 hours, ATP 5 mM last 30 minutes, mean): 118.725 pg/mL
IL-1β Concentration, CBD (NLRP3 inflammasome; Table 1A.2 (repeat), J774A.1, CBD 10 μM alone, single wells): 7.86 pg/mL and 6.35 pg/mL and 8.81 pg/mL and 9.46 pg/mL and 10.46 pg/mL and 8.97 pg/mL
IL-1β Concentration, LPS + ATP + CBD (NLRP3 inflammasome; Table 1A.3 (repeat), J774A.1, CBD 10 μM + LPS + ATP, single wells): 10.8 pg/mL and 17 pg/mL and 11.31 pg/mL and 18.96 pg/mL
IL-1β Concentration, LPS + ATP + CBD, Mean (NLRP3 inflammasome; Table 1A.4, mean of Tables 1A.2 and 1A.3, CBD 10 μM + LPS + ATP): 19.44 pg/mL
IL-1β Concentration, CBD, Mean (NLRP3 inflammasome; Table 1A.4, mean of Tables 1A.2 and 1A.3, CBD 10 μM alone): 8.898 pg/mL
attenuation of the increase in IL-1β (NLRP3 inflammasome; calculated from Table 1A.1 means): over 70%
attenuation of the increase in IL-1β (NLRP3 inflammasome; calculated from Table 1A.4 means): about 97.65%
effect on LPS-induced transcription of pro-IL-1β mRNA (FIG. 1D) (pro-IL-1β mRNA): significantly attenuated these increases
pericardial thickness versus Group 1 (NaCl+Veh), Zym+CBD 1 mg/kg ([2]; Zymosan A mice, CBD 1 mg/kg IP): did not develop a pericardial thickness different from that of the mice of Group 1
pericardial thickness versus Group 1 (NaCl+Veh), Zym+CBD 10 mg/kg (FIG. 3) ([2]; Zymosan A mice, CBD 10 mg/kg IP): did not develop a pericardial thickness different from that of the mice of Group 1
pericardial thickness versus Group 1 (NaCl+Veh), NaCl+CBD (FIG. 3) ([2]; sham mice, CBD 10 mg/kg IP): did not develop a pericardial thickness different from that of the mice of Group 1
effect on LPS-induced transcription of NLRP3 mRNA (FIG. 1E) (NLRP3 mRNA): significantly attenuated these increases
effect on LPS-induced increase in IL-6 (FIG. 1C) (IL-6): attenuated this increase completely

Reference: patent US20260034150A1, “CANNABIDIOL FOR USE IN TREATING OR PREVENTING RECURRENT PERICARDITIS” (CARDIOL THERAPEUTICS INC., priority 2022, published 2026)
